{"source": "the supplement of paper PMC10307832", "data": [{"compound": "CC1(C)CNc2cc(NC(=O)c3cccnc3NCc3ccncc3)ccc21 [Motesanib] + COc1cccc2cc(-c3nc([C@H]4CC[C@H](C(=O)O)CC4)n4ncnc(N)c34)[nH]c12 [OSI-027] (partner 0.5 µM)", "test": "relative viability (nuclei count vs DMSO), 5 days (fraction); higher = more cells survive", "conditions": "first compound 1 µM", "summary_of_the_method": "(§1)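 Relative viability is defined as nuclei in treated wells over nuclei in vehicle wells. Duplicate plates were run and medians reported. Lung cancer cell lines in 1536-well plates were dosed by pin tool one day after seeding, with one drug or with a fixed anchor-drug dose plus five library-drug doses (not always all listed) in √10 steps, and nuclei were counted after 5 days.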", "values": [{"cell line": "NCI-H1734", "relative viability": 0.527}, {"cell line": "NCI-H460", "relative viability": 0.632}, {"cell line": "NCI-H2347", "relative viability": 0.493}, {"cell line": "SK-LU-1", "relative viability": 0.394}, {"cell line": "NCI-H1395", "relative viability": 0.564}, {"cell line": "201T", "relative viability": 0.69}, {"cell line": "NCI-H1915", "relative viability": 0.632}, {"cell line": "HCC-827", "relative viability": 0.755}, {"cell line": "LXF-289", "relative viability": 0.886}]}, {"compound": "CC1(C)CNc2cc(NC(=O)c3cccnc3NCc3ccncc3)ccc21 [Motesanib] + CC(=O)c1c(C)c2cnc(Nc3ccc(N4CCNCC4)cn3)nc2n(C2CCCC2)c1=O [Palbociclib] (partner 0.5 µM)", "test": "relative viability (nuclei count vs DMSO), 5 days (fraction); higher = more cells survive", "conditions": "first compound 0.01 µM", "summary_of_the_method": "as §1", "values": [{"cell line": "NCI-H1666", "relative viability": 0.649}, {"cell line": "LK-2", "relative viability": 0.784}, {"cell line": "SK-MES-1", "relative viability": 0.322}, {"cell line": "H3255", "relative viability": 0.308}, {"cell line": "COR-L23", "relative viability": 0.297}, {"cell line": "COR-L 105", "relative viability": 0.393}, {"cell line": "LOU-NH91", "relative viability": 0.536}, {"cell line": "ChaGo-K-1", "relative viability": 0.899}, {"cell line": "NCI-H2170", "relative viability": 0.397}, {"cell line": "NCI-H2405", "relative viability": 0.511}, {"cell line": "HOP-62", "relative viability": 0.451}, {"cell line": "HCC-44", "relative viability": 0.945}, {"cell line": "NCI-H522", "relative viability": 1.15}, {"cell line": "LU99A", "relative viability": 0.412}, {"cell line": "BEN", "relative viability": 0.458}, {"cell line": "HARA", "relative viability": 0.281}, {"cell line": "SW 900", "relative viability": 0.489}, {"cell line": "HCC-78", "relative viability": 0.442}, {"cell line": "NCI-H322M", "relative viability": 0.486}, {"cell line": "LCLC-97TM1", "relative viability": 0.188}, {"cell line": "NCI-H2009", "relative viability": 0.273}, {"cell line": "A-427", "relative viability": 0.527}, {"cell line": "NCI-H441", "relative viability": 0.237}, {"cell line": "NCI-H661", "relative viability": 0.43}, {"cell line": "NCI-H1734", "relative viability": 0.359}, {"cell line": "NCI-H460", "relative viability": 0.278}, {"cell line": "NCI-H2347", "relative viability": 0.452}, {"cell line": "SK-LU-1", "relative viability": 0.386}, {"cell line": "NCI-H1395", "relative viability": 0.682}, {"cell line": "201T", "relative viability": 0.34}, {"cell line": "NCI-H1915", "relative viability": 0.541}, {"cell line": "HCC-827", "relative viability": 0.569}, {"cell line": "LXF-289", "relative viability": 0.659}]}, {"compound": "CC1(C)CNc2cc(NC(=O)c3cccnc3NCc3ccncc3)ccc21 [Motesanib] + CC(=O)c1c(C)c2cnc(Nc3ccc(N4CCNCC4)cn3)nc2n(C2CCCC2)c1=O [Palbociclib] (partner 0.5 µM)", "test": "relative viability (nuclei count vs DMSO), 5 days (fraction); higher = more cells survive", "conditions": "first compound 0.03162 µM", "summary_of_the_method": "as §1", "values": [{"cell line": "NCI-H1666", "relative viability": 0.577}, {"cell line": "LK-2", "relative viability": 0.659}, {"cell line": "SK-MES-1", "relative viability": 0.319}, {"cell line": "H3255", "relative viability": 0.326}, {"cell line": "COR-L23", "relative viability": 0.26}, {"cell line": "COR-L 105", "relative viability": 0.45}, {"cell line": "LOU-NH91", "relative viability": 0.463}, {"cell line": "ChaGo-K-1", "relative viability": 0.881}, {"cell line": "NCI-H2170", "relative viability": 0.382}, {"cell line": "NCI-H2405", "relative viability": 0.499}, {"cell line": "HOP-62", "relative viability": 0.43}, {"cell line": "HCC-44", "relative viability": 0.944}, {"cell line": "NCI-H522", "relative viability": 1.01}, {"cell line": "LU99A", "relative viability": 0.489}, {"cell line": "BEN", "relative viability": 0.457}, {"cell line": "HARA", "relative viability": 0.211}, {"cell line": "SW 900", "relative viability": 0.53}, {"cell line": "HCC-78", "relative viability": 0.467}, {"cell line": "NCI-H322M", "relative viability": 0.439}, {"cell line": "LCLC-97TM1", "relative viability": 0.216}, {"cell line": "NCI-H2009", "relative viability": 0.246}, {"cell line": "A-427", "relative viability": 0.506}, {"cell line": "NCI-H441", "relative viability": 0.214}, {"cell line": "NCI-H661", "relative viability": 0.414}, {"cell line": "NCI-H1734", "relative viability": 0.349}, {"cell line": "NCI-H460", "relative viability": 0.162}, {"cell line": "NCI-H2347", "relative viability": 0.428}, {"cell line": "SK-LU-1", "relative viability": 0.438}, {"cell line": "NCI-H1395", "relative viability": 0.602}, {"cell line": "201T", "relative viability": 0.343}, {"cell line": "NCI-H1915", "relative viability": 0.522}, {"cell line": "HCC-827", "relative viability": 0.437}, {"cell line": "LXF-289", "relative viability": 0.6}]}, {"compound": "CC1(C)CNc2cc(NC(=O)c3cccnc3NCc3ccncc3)ccc21 [Motesanib] + CC(=O)c1c(C)c2cnc(Nc3ccc(N4CCNCC4)cn3)nc2n(C2CCCC2)c1=O [Palbociclib] (partner 0.5 µM)", "test": "relative viability (nuclei count vs DMSO), 5 days (fraction); higher = more cells survive", "conditions": "first compound 0.1 µM", "summary_of_the_method": "as §1", "values": [{"cell line": "NCI-H1666", "relative viability": 0.679}, {"cell line": "LK-2", "relative viability": 0.537}, {"cell line": "NCI-H2087", "relative viability": 0.26}, {"cell line": "SK-MES-1", "relative viability": 0.316}, {"cell line": "H3255", "relative viability": 0.322}, {"cell line": "COR-L23", "relative viability": 0.272}, {"cell line": "COR-L 105", "relative viability": 0.401}, {"cell line": "LOU-NH91", "relative viability": 0.539}, {"cell line": "ChaGo-K-1", "relative viability": 0.976}, {"cell line": "NCI-H2170", "relative viability": 0.388}, {"cell line": "NCI-H2405", "relative viability": 0.535}, {"cell line": "HOP-62", "relative viability": 0.499}, {"cell line": "HCC-44", "relative viability": 1.02}, {"cell line": "NCI-H522", "relative viability": 1}, {"cell line": "LU99A", "relative viability": 0.435}, {"cell line": "BEN", "relative viability": 0.478}, {"cell line": "HARA", "relative viability": 0.282}, {"cell line": "SW 900", "relative viability": 0.56}, {"cell line": "HCC-78", "relative viability": 0.478}, {"cell line": "NCI-H322M", "relative viability": 0.48}, {"cell line": "LCLC-97TM1", "relative viability": 0.229}, {"cell line": "NCI-H2009", "relative viability": 0.276}, {"cell line": "A-427", "relative viability": 0.512}, {"cell line": "NCI-H441", "relative viability": 0.268}, {"cell line": "NCI-H661", "relative viability": 0.43}, {"cell line": "NCI-H1734", "relative viability": 0.387}, {"cell line": "NCI-H460", "relative viability": 0.142}, {"cell line": "NCI-H2347", "relative viability": 0.404}, {"cell line": "SK-LU-1", "relative viability": 0.44}, {"cell line": "NCI-H1395", "relative viability": 0.623}, {"cell line": "201T", "relative viability": 0.358}, {"cell line": "NCI-H1915", "relative viability": 0.545}, {"cell line": "HCC-827", "relative viability": 0.459}, {"cell line": "LXF-289", "relative viability": 0.563}]}, {"compound": "CC1(C)CNc2cc(NC(=O)c3cccnc3NCc3ccncc3)ccc21 [Motesanib] + CC(=O)c1c(C)c2cnc(Nc3ccc(N4CCNCC4)cn3)nc2n(C2CCCC2)c1=O [Palbociclib] (partner 0.5 µM)", "test": "relative viability (nuclei count vs DMSO), 5 days (fraction); higher = more cells survive", "conditions": "first compound 0.3162 µM", "summary_of_the_method": "as §1", "values": [{"cell line": "NCI-H1666", "relative viability": 0.751}, {"cell line": "LK-2", "relative viability": 0.667}, {"cell line": "NCI-H2087", "relative viability": 0.232}, {"cell line": "SK-MES-1", "relative viability": 0.331}, {"cell line": "H3255", "relative viability": 0.348}, {"cell line": "COR-L23", "relative viability": 0.273}, {"cell line": "COR-L 105", "relative viability": 0.438}, {"cell line": "LOU-NH91", "relative viability": 0.58}, {"cell line": "ChaGo-K-1", "relative viability": 0.856}, {"cell line": "NCI-H2170", "relative viability": 0.377}, {"cell line": "NCI-H2405", "relative viability": 0.562}, {"cell line": "HOP-62", "relative viability": 0.51}, {"cell line": "HCC-44", "relative viability": 0.972}, {"cell line": "NCI-H522", "relative viability": 0.84}, {"cell line": "LU99A", "relative viability": 0.334}, {"cell line": "BEN", "relative viability": 0.481}, {"cell line": "HARA", "relative viability": 0.253}, {"cell line": "SW 900", "relative viability": 0.614}, {"cell line": "HCC-78", "relative viability": 0.511}, {"cell line": "NCI-H322M", "relative viability": 0.508}, {"cell line": "LCLC-97TM1", "relative viability": 0.32}, {"cell line": "NCI-H2009", "relative viability": 0.246}, {"cell line": "A-427", "relative viability": 0.526}, {"cell line": "NCI-H441", "relative viability": 0.2}, {"cell line": "NCI-H661", "relative viability": 0.435}, {"cell line": "NCI-H1734", "relative viability": 0.348}, {"cell line": "NCI-H460", "relative viability": 0.197}, {"cell line": "NCI-H2347", "relative viability": 0.469}, {"cell line": "SK-LU-1", "relative viability": 0.409}, {"cell line": "NCI-H1395", "relative viability": 0.661}, {"cell line": "201T", "relative viability": 0.371}, {"cell line": "NCI-H1915", "relative viability": 0.508}, {"cell line": "HCC-827", "relative viability": 0.546}, {"cell line": "LXF-289", "relative viability": 0.656}]}, {"compound": "CC1(C)CNc2cc(NC(=O)c3cccnc3NCc3ccncc3)ccc21 [Motesanib] + CC(=O)c1c(C)c2cnc(Nc3ccc(N4CCNCC4)cn3)nc2n(C2CCCC2)c1=O [Palbociclib] (partner 0.5 µM)", "test": "relative viability (nuclei count vs DMSO), 5 days (fraction); higher = more cells survive", "conditions": "first compound 1 µM", "summary_of_the_method": "as §1", "values": [{"cell line": "NCI-H1666", "relative viability": 0.63}, {"cell line": "LK-2", "relative viability": 0.708}, {"cell line": "NCI-H2087", "relative viability": 0.26}, {"cell line": "SK-MES-1", "relative viability": 0.351}, {"cell line": "H3255", "relative viability": 0.363}, {"cell line": "COR-L23", "relative viability": 0.32}, {"cell line": "COR-L 105", "relative viability": 0.448}, {"cell line": "LOU-NH91", "relative viability": 0.553}, {"cell line": "ChaGo-K-1", "relative viability": 0.908}, {"cell line": "NCI-H2170", "relative viability": 0.397}, {"cell line": "NCI-H2405", "relative viability": 0.52}, {"cell line": "HOP-62", "relative viability": 0.494}, {"cell line": "HCC-44", "relative viability": 0.942}, {"cell line": "NCI-H522", "relative viability": 1.26}, {"cell line": "LU99A", "relative viability": 0.417}, {"cell line": "BEN", "relative viability": 0.476}, {"cell line": "HARA", "relative viability": 0.315}]}]}
